Reference: ChEMBL document CHEMBL1141502, “Synthesis of hybrid acetogenins, alpha,beta-unsaturated-gamma-lactone-free nitrogen-containing heterocyclic analogues, and their cytotoxicity against human cancer cell lines” (2008)

What was measured:
Format in all cases: functional
[1] = Antiproliferative activity against human OVACR5 cells by sulforhodamine B assay relative to control
PC-3 = experiment: Antiproliferative activity against human PC3 cells by sulforhodamine B assay relative to control
HT-29 = experiment: Antiproliferative activity against human HT29 cells by sulforhodamine B assay relative to control
U-251 = experiment: Antiproliferative activity against human U251 cells by sulforhodamine B assay relative to control
HCC 2998 = experiment: Antiproliferative activity against human HCC2998 cells by sulforhodamine B assay relative to control
SF-268 = experiment: Antiproliferative activity against human SF268 cell by sulforhodamine B assay relative to control
DMS-273 = experiment: Antiproliferative activity against human DMS273 cells by sulforhodamine B assay relative to control
KM12 = experiment: Antiproliferative activity against human KM12 cells by sulforhodamine B assay relative to control
MKN-7 = experiment: Antiproliferative activity against human MKN7 cells by sulforhodamine B assay relative to control
SNB-75 = experiment: Antiproliferative activity against human SNB75 cells by sulforhodamine B assay relative to control
MKN-74 = experiment: Antiproliferative activity against human MKN74 cells by sulforhodamine B assay relative to control
DMS-114 = experiment: Antiproliferative activity against human DMS114 cells by sulforhodamine B assay relative to control
DU-145 = experiment: Antiproliferative activity against human DU145 cells by sulforhodamine B assay relative to control
[2] = Antiproliferative activity against human RXF631L cells by sulforhodamine B assay relative to control; settings: RXF 631
[3] = Antiproliferative activity against human BSY1 cells by sulforhodamine B assay relative to control; settings: BSY-1
HCT-116 = experiment: Antiproliferative activity against human HCT116 cells by sulforhodamine B assay relative to control
NCI-H460 = experiment: Antiproliferative activity against human NCI-H460 cells by sulforhodamine B assay relative to control
SK-OV-3 = experiment: Antiproliferative activity against human SKOV3 cells by sulforhodamine B assay relative to control
SNB-78 = experiment: Antiproliferative activity against human SNB78 cells by sulforhodamine B assay relative to control
HCT-15 = experiment: Antiproliferative activity against human HCT15 cells by sulforhodamine B assay relative to control
[4] = Antiproliferative activity against human HBC5 cells by sulforhodamine B assay relative to control
MKN-28 = experiment: Antiproliferative activity against human MKN28 cells by sulforhodamine B assay relative to control
LOX IMVI = experiment: Antiproliferative activity against human LOX IMVI cells by sulforhodamine B assay relative to control
NCI-H522 = experiment: Antiproliferative activity against human NCI-H522 cells by sulforhodamine B assay relative to control
ACHN = experiment: Antiproliferative activity against human ACHN cells by sulforhodamine B assay relative to control
NCI-H226 = experiment: Antiproliferative activity against human NCI-H226 cells by sulforhodamine B assay relative to control
[5] = Antiproliferative activity against human OVACR8 cells by sulforhodamine B assay relative to control
MDA-MB-231 = experiment: Antiproliferative activity against human MDA-MB-231 cells by sulforhodamine B assay relative to control
St-4 = experiment: Antiproliferative activity against human St4 cells by sulforhodamine B assay relative to control
A549 = experiment: Antiproliferative activity against human A549 cells by sulforhodamine B assay relative to control
[6] = Antiproliferative activity against human HBC4 cells by sulforhodamine B assay relative to control
NCI-H23 = experiment: Antiproliferative activity against human NCI-H23 cells by sulforhodamine B assay relative to control
MCF7 = experiment: Antiproliferative activity against human MCF7 cells by sulforhodamine B assay relative to control
[7] = Antiproliferative activity against human MKN1 cells by sulforhodamine B assay relative to control; settings: MKN-1
[8] = Antiproliferative activity against human OVACR3 cells by sulforhodamine B assay relative to control
SF-295 = experiment: Antiproliferative activity against human SF295 cells by sulforhodamine B assay relative to control
SF-539 = experiment: Antiproliferative activity against human SF539 cells by sulforhodamine B assay relative to control
[9] = Antiproliferative activity against human OVACR4 cells by sulforhodamine B assay relative to control
MKN-45 = experiment: Antiproliferative activity against human MKN45 cells by sulforhodamine B assay relative to control

Structure (SMILES)	GI50 [1] [µM]	GI50 (PC-3) [µM]	GI50 (HT-29) [µM]	GI50 (U-251) [µM]	GI50 (HCC 2998) [µM]	GI50 (SF-268) [µM]	GI50 (DMS-273) [µM]	GI50 (KM12) [µM]	GI50 (MKN-7) [µM]	GI50 (SNB-75) [µM]	GI50 (MKN-74) [µM]	GI50 (DMS-114) [µM]	GI50 (DU-145) [µM]	GI50 [2] [µM]	GI50 [3] [µM]	GI50 (HCT-116) [µM]	GI50 (NCI-H460) [µM]	GI50 (SK-OV-3) [µM]	GI50 (SNB-78) [µM]	GI50 (HCT-15) [µM]	also measured
CCCCCCCCCCCC[C@@H](O)[C@H]1CC[C@H]([C@H](O)CCCCCCCCCCCCc2cncnc2)O1	> 100	35	33	61	28	49	28	36	6.1	28	38	4.1	90	> 43	34	28	40	33	52	47	GI50 [4]: 17 µM; GI50 (MKN-28): 13 µM; GI50 (LOX IMVI): 16 µM; GI50 (NCI-H522): 13 µM; GI50 (ACHN): 40 µM; GI50 (NCI-H226): 22 µM; GI50 [5]: 29 µM; GI50 (MDA-MB-231): > 100 µM; GI50 (St-4): 39 µM; GI50 (A549): 42 µM; GI50 [6]: 56 µM; GI50 (NCI-H23): 11 µM; GI50 (MCF7): 34 µM; GI50 [7]: 32 µM; GI50 [8]: 29 µM; GI50 (SF-295): 25 µM; GI50 (SF-539): 28 µM; GI50 [9]: 22 µM; GI50 (MKN-45): 50 µM
CCCCCCCCCCCC[C@@H](O)[C@H]1CC[C@H]([C@H](O)CCCCCCCCCCCCc2ccnn2C)O1	> 100	> 100	76	> 100	80	> 100	49	71	6.2	> 100	23	0.55	> 100	> 100	32	9.2	> 100	77	> 100	> 100	GI50 [4]: 69 µM; GI50 (MKN-28): 4.4 µM; GI50 (LOX IMVI): > 100 µM; GI50 (NCI-H522): 3.8 µM; GI50 (ACHN): 88 µM; GI50 (NCI-H226): 52 µM; GI50 [5]: > 100 µM; GI50 (MDA-MB-231): 32 µM; GI50 (St-4): 65 µM; GI50 (A549): 31 µM; GI50 [6]: > 100 µM; GI50 (NCI-H23): 0.91 µM; GI50 (MCF7): 27 µM; GI50 [7]: > 100 µM; GI50 [8]: > 100 µM; GI50 (SF-295): 24 µM; GI50 (SF-539): 37 µM; GI50 [9]: 37 µM; GI50 (MKN-45): > 100 µM
CCCCCCCCCCCC[C@@H](O)[C@H]1CC[C@H]([C@H](O)CCCCCCCCCCCCc2cnn(C)c2)O1	> 100	> 100	> 100	> 100	> 100	> 100	> 100	> 100	5.4	23	> 100	2.1	> 100	> 100	> 100	70	> 100	> 100	81	> 100	GI50 [4]: > 100 µM; GI50 (MKN-28): 19 µM; GI50 (LOX IMVI): 9.5 µM; GI50 (NCI-H522): 12 µM; GI50 (ACHN): > 100 µM; GI50 (NCI-H226): 56 µM; GI50 [5]: > 100 µM; GI50 (MDA-MB-231): > 100 µM; GI50 (St-4): > 100 µM; GI50 (A549): > 100 µM; GI50 [6]: > 100 µM; GI50 (NCI-H23): 13 µM; GI50 (MCF7): > 100 µM; GI50 [7]: > 100 µM; GI50 [8]: > 100 µM; GI50 (SF-295): 24 µM; GI50 (SF-539): 37 µM; GI50 [9]: > 100 µM; GI50 (MKN-45): > 100 µM
CCCCCCCCCCCC[C@@H](O)[C@H]1CC[C@H]([C@H](O)CCCCCCCCCCCCc2ncccn2)O1	> 100	> 68	> 100	> 100	> 100	> 100	92	> 100	27	32	69	16	> 100	> 100	> 100	> 100	> 100	74	> 100	> 100	GI50 [4]: 50 µM; GI50 (MKN-28): 48 µM; GI50 (LOX IMVI): 12 µM; GI50 (NCI-H522): 17 µM; GI50 (ACHN): > 100 µM; GI50 (NCI-H226): 30 µM; GI50 [5]: > 100 µM; GI50 (MDA-MB-231): > 100 µM; GI50 (St-4): > 100 µM; GI50 (A549): > 100 µM; GI50 [6]: > 100 µM; GI50 (NCI-H23): 28 µM; GI50 (MCF7): 79 µM; GI50 [7]: > 100 µM; GI50 [8]: > 100 µM; GI50 (SF-295): > 100 µM; GI50 (SF-539): 41 µM; GI50 [9]: 38 µM; GI50 (MKN-45): > 100 µM
CCCCCCCCCCCC[C@@H](O)[C@H]1CC[C@H]([C@H](O)CCCCCCCCCCCCc2cnc(N)nc2)O1	> 100	> 100	90	> 100	89	> 100	> 100	> 100	9.4	27	> 100	4.8	> 100	> 100	> 100	> 100	> 100	56	> 100	> 100	GI50 [4]: > 100 µM; GI50 (MKN-28): 40 µM; GI50 (LOX IMVI): 58 µM; GI50 (NCI-H522): 22 µM; GI50 (ACHN): > 100 µM; GI50 (NCI-H226): 44 µM; GI50 [5]: 90 µM; GI50 (MDA-MB-231): > 100 µM; GI50 (St-4): > 100 µM; GI50 (A549): > 100 µM; GI50 [6]: > 100 µM; GI50 (NCI-H23): 36 µM; GI50 (MCF7): > 100 µM; GI50 [7]: > 100 µM; GI50 [8]: > 100 µM; GI50 (SF-295): 56 µM; GI50 (SF-539): 62 µM; GI50 [9]: > 100 µM; GI50 (MKN-45): > 100 µM
